Where two headings read alike, the source gives them in different places.
Experiments:
[1] = test system: ovariectomized (OVX) female Sprague Dawley rats; assay: Serum cholesterol in OVX rats, 4-day dosing; format: in vivo, rat
Description: (§1) Seventy-five day old female Sprague Dawley rats (weight range of 200 to 225 g) were obtained from Charles River Laboratories (Portage, Mich.). The animals were either bilaterally ovariectomized (OVX) or exposed to a Sham surgical procedure at Charles River Laboratories, and then shipped after one week. Upon arrival, they were housed in metal hanging cages in groups of 3 or 4 per cage and had ad libitum access to food (calcium content approximately 0.5%) and water for one week. Room temperature was maintained at 22.2°±1.7° C. with a minimum relative humidity of 40%. The photoperiod in the room was 12 hours light and 12 hours dark.
(§2) Dosing Regimen Tissue Collection. After a one week acclimation period (therefore, two weeks post-OVX) daily dosing with test compound was initiated. 17α-ethynyl estradiol or the test compound were given orally, unless otherwise stated, as a suspension in 1% carboxymethylcellulose or dissolved in 20% cyclodextrin. Animals were dosed daily for 4 days. Following the dosing regimen, animals were weighed and anesthetized with a ketamine: Xylazie (2:1, V:V) mixture and a blood sample was collected by cardiac puncture. The animals were then sacrificed by asphyxiation with CO2, the uterus was removed through a midline incision, and a wet uterine weight was determined.
Cholesterol Analysis. Blood samples were allowed to clot at room temperature for 2 hours, and serum was obtained following centrifugation for 10 minutes at 3000 rpm. Serum cholesterol was determined using a Boehringer Mannheim Diagnostics high performance cholesterol assay. Briefly the cholesterol was oxidized to cholest-4-en-3-one and hydrogen peroxide. The hydrogen peroxide was then reacted with phenol and 4-aminophenazone in the pressure of peroxidase to produce a p-quinone imine dye, which was read spectrophotemetrically at 500 nm. Cholesterol concentration was then calculated against a standard curve. The entire assay was automated using a Biomek Automated Workstation.
(§3) Data presented in Table 1 below show comparative results among ovariectomized rats, rats treated with 17α-ethynyl estradiol (EE2; an orally available form of estrogen), and rats treated with certain compounds of the present invention. […] This uterine response to estrogen is well recognized in the art.
(§4) The data presented in the Tables 1 below reflects the response of 5 to 6 rats per treatment.

[2] = test system: ovariectomized (OVX) female Sprague Dawley rats; conditions: rat, in vivo, po, 4 days
Method: In the examples illustrating the methods, a post-menopausal model was used in which effects of different treatments upon circulating lipids were determined.
as §1, §2, §3, §4

[3] = test system: Uterine Eosinophil Peroxidase (EPO); conditions: rat, in vivo; for Uterine EPO (V. max): po
Description: as §1, §2
Uterine Eosinophil Peroxidase (EPO) Assay. Uteri were kept at 4° C. until time of enzymatic analysis. The uteri were then homogenized in 50 volumes of 50 mM Tris Buffer (pH −8.0) containing 0.005% Triton X-100. Upon addition of 0.01% hydrogen peroxide and 10 mM O-phenylenediamine (final concentrations) in Tris buffer, increase in absorbance was monitored for one minute at 450 nm. The presence of eosonophils in the uterus is an indication of estrogenic activity of a compound. The maximal velocity of a 15 second interval was determined over the initial, linear portion of the reaction curve.
As is expressed in the below data, estrogenicity also was assessed by evaluating the adverse response to eosinophil infiltration into the uterus.
as §4

[4] = test system: ovariectomized (OVX) female Sprague Dawley rats; assay: Osteoporosis Test Procedure: distal femur metaphysis X-ray image analysis, OVX rats, 35 days; format: in vivo, rat; conditions: for Distal Femur Metaphysis (X-ray Image Analysis-Gray Score): 0.1 mg/kg, mean ± SEM
Description: as §1
Following the General Preparation Procedure, infra, the rats were treated daily for 35 days (6 rats per treatment group) and sacrificed by carbon dioxide asphyxiation on the 36th day. The 35 day time period was sufficient to allow maximal reduction in bone density, measured as described herein. At the time of sacrifice, the uteri were removed, dissected free of extraneous tissue, and the fluid contents were expelled before determination of wet weight in order to confirm estrogen deficiency associated with complete ovariectomy. […] The uteri were then placed in 10% neutral buffered formalin to allow for subsequent histological analysis.
The right femurs were excised and digitilized x-rays generated and analyzed by an image analysis program (NIH image) at the distal metaphysis. The proximal aspect of the tibiae from these animals were also scanned by quantitative computed tomography.
In accordance with the above procedures, compounds of the present invention and ethynyl estradiol (EE2) in 20% hydroxypropyl β-cyclodextrin were orally administered to test animals. Distal femur metaphysis data presented in Tables 2 and 3 below are the results of formula I compound treatments compared to intact and ovariectomized test animals. Results are reported as the mean ± the standard error of the mean.

[5] = Rattus norvegicus, po, 96 h, oral daily for 4 days, dose 0.1 mg/kg, read-out: Serum Cholesterol (% decrease vs. OVX)
[6] = Rattus norvegicus, po, 96 h, oral daily for 4 days, read-out: Serum Cholesterol (% decrease vs. OVX)
[7] = female, Sprague Dawley, 0.1 mg/kg, 4 days
[8] = female, Sprague Dawley, 1 mg/kg, 4 days
[9] = female, Sprague Dawley, 10 mg/kg, 4 days

Row | Uterine Weight (% increase vs. OVX) ([2]; 0.1 mg/kg) [%] | Uterine Weight (% increase vs. OVX) ([2]; 1 mg/kg) [%] | Uterine Weight (% increase vs. OVX) ([2]; 10 mg/kg) [%] | Uterine EPO (V. max) [3, 7] | Uterine EPO (V. max) [3, 8] | Uterine EPO (V. max) [3, 9] | Uterine EPO (V. max) ([3]; 0.1 mg/kg) | Uterine Weight (% increase vs. OVX) ([2]; 0.01 mg/kg) [%] | Uterine EPO (V. max) ([3]; female, Sprague Dawley, 0.01 mg/kg, 4 days) | SMILES | inhibition in vivo at 0.1 mg/kg [1, 5] [%] | inhibition in vivo at 1 mg/kg [1, 6] [%] | inhibition in vivo at 10 mg/kg [1, 6] [%] | Serum Cholesterol (% decrease vs. OVX) ([1]; oral daily for 4 days, dose 0.1 mg/kg) [%] | serum cholesterol compared to ovariectomized control animals (in words) ([1]; oral, 4 days, EE2 at 0.1 mg/kg/day) | eosinophil infiltration into the uterus (number of eosinophils in the stromal layer, in words) [3] | Distal Femur Metaphysis (X-ray Image Analysis-Gray Score) ([4]; Table 2, oral daily 35 days in 20% cyclodextrin, OVX control 5.5 ± 0.6, Sham 30.5 ± 4.3) | Distal Femur Metaphysis (X-ray Image Analysis-Gray Score) ([4]; Table 3, oral daily 35 days in 20% cyclodextrin, OVX control 7.2 ± 2.2, Sham 44.7 ± 6.4) | bone loss / femur density after ovariectomy (in words) ([4]; oral, 35 days) | inhibition in vivo at 0.01 mg/kg ([1]; Rattus norvegicus, po, 96 h, oral daily for 4 days, dose 0.01 mg/kg, read-out: Serum Cholesterol (% decrease vs. OVX)) [%]
1 | 26.3 | 18.6 | 25.1 | 12.0 | 4.8 | 4.5 |  |  |  | Oc1ccc2c(Cc3ccc(OCCN4CCCC4)cc3)c(-c3ccccc3)ccc2c1 [Example 12] | 46.3 | 49.9 | 50.1 |  |  |  |  |  |  | 
2 |  |  |  |  |  |  | 116.4 |  |  | C#C[C@]1(O)CC[C@H]2[C@@H]3CCc4cc(O)ccc4[C@H]3CC[C@@]21C [EE2, 17α-ethynyl estradiol, reference compound] |  |  |  | 81.4 | caused a decrease in serum cholesterol | substantial, expected increase in eosinophil infiltration | 32.8 ± 7.9 | 44.4 ± 4.8 | prevented this loss | 
3 | 41.6 | 21.2 | 53.7 | 7.0 | 5.2 | 5.5 |  | 29.3 | 4.6 | COc1ccc(-c2ccc3ccccc3c2Cc2ccc(OCCN3CCCCC3)cc2)cc1.Cl [Example 15, [2-(4-Methoxyphenyl)-naphthalen-1-yl][4-[2-(1-piperdinyl)ethoxy]phenyl]methane hydrochloride] | 53.4 | 66 | 55.4 |  |  |  |  |  |  | 12.4
4 | 52.1 | 22.8 | 75.2 | 3.6 | 2.9 | 3.4 |  |  |  | CC(C)(C)C(=O)Oc1ccc(-c2ccc3cc(OC(=O)C(C)(C)C)ccc3c2Cc2ccc(OCCN3CCCCC3)cc2)cc1 [Example 4, [2-(4-Pivaloyloxyphenyl)-6-pivaloyloxynaphthalen-1-yl][4-[2-(1-piperidinyl)ethoxy]phenyl]methane] | 21.2 | 37.2 | 20.8 |  |  |  |  |  |  | 
5 | 48.1 | 47.4 | 14.4 | 4.8 | 3.9 | 3.9 |  |  |  | Oc1ccc2c(Cc3ccc(OCCN4CCCCC4)cc3)c(-c3ccccc3)ccc2c1 [Example 11, [2-Phenyl-6-hydroxynaphthalen-1-yl][4-[2-(1-piperdinyl)ethoxy]phenyl]methane] | 60.2 | 73.5 | 72.4 |  |  |  |  |  |  | 
6 | 43.2 | 16.0 | 25.3 | 3.4 | 4.3 | 2.6 |  |  |  | CCCCS(=O)(=O)Oc1ccc(-c2ccc3cc(OS(=O)(=O)CCCC)ccc3c2Cc2ccc(OCCN3CCCCC3)cc2)cc1 [Example 5, [2-(4-n-Butylsulfonyloxyphenyl)-6-n-butylsulfonyloxynaphthalen-1-yl][4-[2-(1-piperidinyl)ethoxy]phenyl]methane] | 6 | 62 | 46.2 |  |  |  |  |  |  | 
7 |  |  |  |  |  |  |  |  |  | COc1ccc(-c2ccc3cc(OC)ccc3c2Cc2ccc(OCCN3CCCCCC3)cc2)cc1.Cl [Example 26, [2-(4-Methoxyphenyl)-6-methoxynaphthalen-1-yl][4-[2-(1-hexamethyleneiminyl)ethoxy]phenyl]methane hydrochloride] | 45.1 | 55.5 | 60.6 |  |  |  |  |  |  | 
8 | 50.5 | 55.4 | 69.7 | 9.3 | 39.3 | 34.8 |  |  |  | Oc1ccc(-c2ccc3cc(O)ccc3c2Cc2ccc(OCCN3CCOCC3)cc2)cc1 [Example 32] | 57.9 | 60.3 | 65.7 |  |  |  |  |  |  | 
9 | −12.4 | 1.0 | 7.1 | 0.9 | 5.4 | 4.5 |  |  |  | Oc1ccc(-c2ccc3cc(O)ccc3c2Cc2ccc(OCCN3CCCC3)cc2)cc1 [Example 19] | 4.5 | 19.7 | 40.9 |  |  |  |  |  |  | 
10 | 40.8 | 79.0 | 63.0 | 12.9 | 55.2 | 73.5 |  |  |  | CC1(C)CCN(CCOc2ccc(Cc3c(-c4ccc(O)cc4)ccc4cc(O)ccc34)cc2)C1 [Example 33, [2-(4-Hydroxyphenyl)-6-hydroxynaphthalen-1-yl][4-[2-(1-(3,3-dimethyl)pyrrolidinyl)ethoxy]phenyl]methane] | 25.2 | 41.1 | 52.8 |  |  |  |  |  |  | 
11 | 83.9 | 87.5 | 89.3 | 45.0 | 41.1 | 46.2 |  |  |  | CCN(CC)CCOc1ccc(Cc2c(-c3ccc(OC)cc3)ccc3cc(OC)ccc23)cc1.Cl [Example 22, [2-(4-Methoxyphenyl)-6-methoxynaphthalen-1-yl][4-[2-(1-N,N-diethylamino)ethoxy]phenyl]methane hydrochloride] | 72 | 60.5 | 68.7 |  |  |  |  |  |  | 
